The subject of one data set is human or rat gliomacyte. The settings on record: cited from earlier work.
A further data set relates to rat glioma. Kind of data set: Uptake of ^11 C-labelled L-DABA into rat glioma cells in culture. It is filed as cell-based. The settings on record: medium with amino acid content close to the biological one, control phosphate-buffered saline, FIG. 7. As for the experimental part:
Biological applicability of the ^11 C-labelled L-DABA obtained in Example 3 was evaluated. The relationship between concentration of the L-DABA added to culture medium of rat glioma and uptake of radioactivity into the glioma cells in a given duration was investigated in a medium having an amino acid content close to the biological one, and for control, in a physiological saline buffered with phosphoric acid.

Data set [1] in a line: Sterility and exothermic substance check of the filtered ^11 C-labelled glutamic acid product. The settings on record: after sterilized 0.2 μm filter. As for the experimental part: NaOH of 2.5M was added to a reaction solution containing the γ-cyano-α-aminobutyric acid of which cyano group carbon being labelled with positron nuclide ^11 C, as obtained in Example 6, and temperature of the mixture was raised to 135° C. After the lapse of 15 minutes, the reaction solution was mixed with 8 ml 50 mM NaH2 PO4, and the resultant mixture was passed through an anion exchange resin (800 mg AGI-x8 200-400 mesh hydroxide form). After washing with 50 mM NaH2 PO4 in an amount of 6 ml, the reaction product was eluted with 150 mM NaH2 PO4 (pH adjusted to 2.8 with phosphoric acid), and the elute was received in a receptacle containing 150 μl 8.5% phosphoric acid. The contents were passed through a sterilized filter having a pore diameter of 0.2 μm for collection in bial.

In the case of `NCCC(N)C(=O)O` (stereo not drawn) [2,4-Diaminobutyric acid (DABA), 2,4-Diaminobutyric acid], the incorporation into gliomacyte entry with human or rat gliomacyte is “found to be incorporated into human or rat gliomacyte”.
On to `N[11CH2]C[C@H](N)C(=O)O` [^11 C-labelled L-DABA, L-2,4-diaminobutyric acid (L-DABA) labelled with ^11 C], for which the “uptake of radioactivity into the glioma cells” value in the data set with rat glioma is “dependent on the concentration of it in culture medium”.
For the molecule `N[C@@H](CC[11C](=O)O)C(=O)O` [^11 C-labelled glutamic acid], in data set [1], the exothermic substance result is “no exothermic substance was detected” and the sterility of product entry is on record as “germ-free”.
For the molecule `NC(=O)CC[C@H](N)C(=O)O` [L-glutamine], in the data set on human or rat gliomacyte, the incorporation into gliomacyte entry is on record as “found to be incorporated into human or rat gliomacyte”.
Turning to `N[C@@H](CCC(=O)O)C(=O)O` [L-glutamic acid], the incorporation into gliomacyte result in the data set with human or rat gliomacyte is on record as “found to be incorporated into human or rat gliomacyte”.

(Values after patent US5847193A, “Labelled compound” (priority 1995, dated 1998).)
